These compounds were tested on Mus musculus (assay: In vivo activity against P388 lymphocytic leukemia, and the maximum T/C values were reported. T/C >=125 is considered active).
Format: functional

SMILES | Max T/C
C/C=C1\C[C@H]2[C@@H](OC)Nc3cc(O)c(OC)cc3C(=O)N2C1 | 188
C/C=C/CN1CC=Nc2c(O)cccc2C1=O | 138
O=C1c2ccccc2N=CC2CCCN12 (stereo unspecified) | 133
COc1cc2c(cc1O)N[C@H](OC)[C@@H]1CC(O)CN1C2=O (stereo partly specified) | 144
O=C1c2cccc(O)c2N=CCN1Cc1ccccc1 | 100
COC(=O)/C=C1/C[C@H]2[C@@H](S(=O)(=O)[O-])Nc3cc(O)c(OC)cc3C(=O)N2C1.[Na+] | 131
CCOC(=O)CN1CC=Nc2c(O)cccc2C1=O | 106
CN1CC=Nc2c(O)cccc2C1=O | 122
O=C1NCC=Nc2c(O)cccc21 | 125
COc1cc2c(cc1O)N[C@@H](OC)[C@@H]1CC(O)CN1C2=O (stereo partly specified) | 100
C=CCN1CC=Nc2c(O)cccc2C1=O | 117
C#CCN1CC=Nc2c(O)cccc2C1=O | 162
COc1cc2c(cc1OC(C)=O)N[C@H](OC)[C@@H]1CC(OC(C)=O)CN1C2=O (stereo partly specified) | 100

Organism: Mus musculus
Assay: Optimal dose required for activity against P388 lymphocytic leukemia
Format: functional

SMILES | OD [mg/kg]
COc1cc2c(cc1OC(C)=O)N[C@H](OC)[C@@H]1CC(OC(C)=O)CN1C2=O (stereo partly specified) | 16

Organism: Mus musculus
Assay: Optimal dose required for activity against P388 lymphocytic leukemia.
Format: functional

SMILES | OD [mg/kg]
C/C=C1\C[C@H]2[C@@H](OC)Nc3cc(O)c(OC)cc3C(=O)N2C1 | 0.2
C/C=C/CN1CC=Nc2c(O)cccc2C1=O | 20
O=C1c2ccccc2N=CC2CCCN12 (stereo unspecified) | 8
COc1cc2c(cc1O)N[C@H](OC)[C@@H]1CC(O)CN1C2=O (stereo partly specified) | 6.4
O=C1c2cccc(O)c2N=CCN1Cc1ccccc1 | 16
COC(=O)/C=C1/C[C@H]2[C@@H](S(=O)(=O)[O-])Nc3cc(O)c(OC)cc3C(=O)N2C1.[Na+] | 6
CCOC(=O)CN1CC=Nc2c(O)cccc2C1=O | 40
CN1CC=Nc2c(O)cccc2C1=O | 16
O=C1NCC=Nc2c(O)cccc21 | 16
COc1cc2c(cc1O)N[C@@H](OC)[C@@H]1CC(O)CN1C2=O (stereo partly specified) | 16
C=CCN1CC=Nc2c(O)cccc2C1=O | 80
C#CCN1CC=Nc2c(O)cccc2C1=O | 16

Source: ChEMBL document CHEMBL1123110, “Bicyclic and tricyclic analogues of anthramycin” (1985)
